Values of other authors, collected in patent EP0848611B1, “TACRINE PATCH” (HEXAL AG, priority 1995, dated 1997).

Key:
[1] = in vivo

Nc1c2c(nc3ccccc13)CCCC2 [Tacrin, 1,2,3,4-Tetrahydro-9-acridinamin]
Bioverfügbarkeit ([1]; human): 10-30%
Halbwertszeit ([1]; human): 1,5-3,5 h
therapeutischer Blutspiegel [1]: 5 to 70 ng/mL
Anstieg der ALT-Werte (Alaninaminotransferase) (patients): ≤ 20 fachen der oberen normalen Grenze
hepatotoxischer Effekt tritt auf (share of patients): etwa der Hälfte der Patienten
